pIC50: −log10 of the molar value. Active and inactive are the calls of the source. The rule behind the calls is not given here.
How the values were obtained:
[1] = system: Mus musculus; assay: In vivo inhibition of TGFbetaR1 in mouse H22 cell implanted BALB/c mouse assessed as reduction in Smad phosphorylation at 15 to 50 mg/kg, po administered twice daily for 11 days measured 1 to 12 hrs post-last dose by immunoblotting analysis; format: functional, organism-based; details: dose lower […], dose upper 50.0 mg/kg, time 11.0 day
[2] = Intrinsic clearance in dog hepatocytes at 1 uM measured after 90 mins by LC-MS/MS analysis; format: ADME, cell-based, Canis lupus familiaris, Hepatocyte; details: read-out: CLH
[3] = system: 4T1-Luc; assay: Antimetastatic activity against mouse 4T1-Luc cells implanted in BALB/c mouse assessed as reduction in metastatic rate in kidney at 100 mg/kg, po administered daily for 32 days and measured on day 30 to 35 by IVIS fluorescence analysis; format: functional, organism-based; details: time 35.0 day
[4] = biological target: Cytochrome P450 2B6 (Homo sapiens, UniProt P20813); assay: Inhibition of CYP2B6 in human liver microsomes using bupropion as substrate preincubated for 10 mins followed by NADPH regeneration system addition and measured after 10 mins by LC-MS/MS analysis; format: ADME, Microsome
[5] = Tmax in mouse H22 cell implanted BALB/c mouse at 15 to 50 mg/kg, po administered twice daily for 11 days; format: ADME, organism-based; details: in vivo, dose 15-50 mg/kg, time 11 day
[6] = system: 4T1-Luc; assay: Antimetastatic activity against mouse 4T1-Luc cells implanted in BALB/c mouse assessed as reduction in metastatic rate in liver at 100 mg/kg, po administered daily for 32 days and measured on day 30 to 35 by IVIS fluorescence analysis; format: functional, organism-based; details: time 35.0 day
[7] = system: 4T1-Luc; assay: Antimetastatic activity against mouse 4T1-Luc cells implanted in BALB/c mouse assessed as reduction in metastatic rate in spleen at 100 mg/kg, po administered daily for 32 days and measured on day 30 to 35 by IVIS fluorescence analysis; format: functional, organism-based; details: time 35.0 day
[8] = Intrinsic clearance in human hepatocytes at 1 uM measured after 90 mins by LC-MS/MS analysis; format: ADME, cell-based, Hepatocyte; details: read-out: CLH
[9] = Toxicity in mouse CT26 cell implanted BALB/c mouse assessed as change in body weight at 50 mg/kg, po administered twice daily in presence of antimouse-PD-L1 antibody; format: organism-based; details: in vivo
[10] = Drug metabolism in mouse hepatocytes; format: ADME, cell-based, Hepatocyte
[11] = Clearance in CD-1 mouse at 1 mg/kg, iv by LC-MS/MS analysis; format: ADME, organism-based; details: in vivo
[12] = biological target: Cytochrome P450 2C8 (Homo sapiens, UniProt P10632); assay: Inhibition of CYP2C8 in human liver microsomes using amodiaquine as substrate preincubated for 10 mins followed by NADPH regeneration system addition and measured after 10 mins by LC-MS/MS analysis; format: ADME, Microsome
[13] = Half life in CD-1 mouse at 5 mg/kg, po via gavage by LC-MS/MS analysis; format: ADME, organism-based; details: in vivo
[14] = Oral bioavailability in CD-1 mouse at 75 mg/kg via gavage by LC-MS/MS analysis; format: ADME, organism-based; details: in vivo
[15] = AUC (0 to last) in Beagle dog at 1 mg/kg, iv by LC-MS/MS analysis; format: ADME, organism-based, Canis lupus familiaris; details: in vivo
[16] = Drug metabolism in rat hepatocytes; format: ADME, cell-based, Hepatocyte
[17] = Metabolic stability in mouse liver microsomes assessed as parent compound remaining at 1 uM preincubated for 5 mins followed by NADPH addition by LC-MS/MS analysis; format: ADME, Microsome; details: read-out: Stability
[18] = Cmax in CD-1 mouse at 75 mg/kg, po via gavage by LC-MS/MS analysis; format: ADME, organism-based; details: in vivo
[19] = Toxicity in mouse CT26 cell implanted BALB/c mouse assessed as change in body weight at 50 mg/kg, po administered twice daily; format: organism-based; details: in vivo
[20] = biological target: Cytochrome P450 2C9 (Homo sapiens, UniProt P11712); assay: Inhibition of CYP2C9 in human liver microsomes using diclofenac as substrate preincubated for 10 mins followed by NADPH regeneration system addition and measured after 10 mins by LC-MS/MS analysis; format: ADME, Microsome
[21] = Lipophilicity, log D of the compound; format: physicochemical; details: octanol/water
[22] = system: H22; assay: Antitumor activity against mouse H22 cells implanted in po dosed BALB/c mouse assessed as tumor growth inhibition administered twice daily for 11 days and measured 3 times per week during compound dosing; format: functional, organism-based; details: dose lower […], dose upper 50.0 mg/kg, time 11.0 day
[23] = Protein binding in mouse plasma at 0.2 to 10 uM measured after 4 hrs by equilibrium dialysis based LC-MS/MS analysis; format: ADME, cell-free; details: dose 0.2-10 µM, read-out: PPB (converted)
[24] = Half life in Beagle dog at 1 mg/kg, iv by LC-MS/MS analysis; format: ADME, organism-based, Canis lupus familiaris; details: in vivo
[25] = Volume of distribution at steady state in Sprague-Dawley rat at 1 mg/kg, iv by LC-MS/MS analysis; format: ADME, organism-based; details: in vivo, read-out: Vdss
[26] = system: CD14-positive cell; assay: Immunostimulatory activity in human PBMC derived M-CSF stimulated CD14-positive cells assessed as increase in TNFalpha level at 0.1 to 10 uM supplemented with fresh medium containing compound on day 1, 3 and 5 followed by M-CSF/IL-4/IL-13 stimulation for 2 days with subsequent LPS induction and measured after 16 hrs; format: functional, cell-based; details: dose 0.1-10 µM, time 7.0 day
[27] = Protein binding in cynomolgus monkey plasma at 0.2 to 10 uM measured after 4 hrs by equilibrium dialysis based LC-MS/MS analysis; format: ADME, cell-free, Macaca fascicularis; details: dose 0.2-10 µM, read-out: PPB (converted)
[28] = Intrinsic clearance in cynomolgus monkey hepatocytes at 1 uM measured after 90 mins by LC-MS/MS analysis; format: ADME, cell-based, Macaca fascicularis, Hepatocyte; details: read-out: CLH
[29] = AUC (0 to last) in Sprague-Dawley rat at 30 mg/kg, po administered via gavage by LC-MS/MS analysis; format: ADME, organism-based; details: in vivo
[30] = Half life in Sprague-Dawley rat at 30 mg/kg, po administered via gavage by LC-MS/MS analysis; format: ADME, organism-based; details: in vivo
[31] = biological target: Receptor-interacting serine/threonine-protein kinase 2 (Homo sapiens) (UniProt O43353); assay: Inhibition of RIPK2 (unknown origin) assessed as residual activity at 1 uM relative to control
[32] = biological target: Cytochrome P450 1A2 (Homo sapiens, UniProt P05177); assay: Inhibition of CYP1A2 in human liver microsomes using phenacetin as substrate preincubated for 10 mins followed by NADPH regeneration system addition and measured after 10 mins by LC-MS/MS analysis; format: ADME, Microsome
[33] = biological target: TRAF2 and NCK-interacting protein kinase (Homo sapiens) (UniProt Q9UKE5); assay: Inhibition of TNIK (unknown origin) assessed as residual activity at 1 uM relative to control
[34] = system: H22; assay: Antitumor activity against mouse H22 cells implanted in BALB/c mouse assessed as tumor growth inhibition at 50 mg/kg, po administered twice daily for 11 days and measured 3 times per week during compound dosing relative to control; format: functional; details: H22, 264 h, time 11 day, read-out: TGI
[35] = Drug metabolism in human hepatocytes; format: ADME, cell-based, Hepatocyte
[36] = Drug metabolism in monkey liver microsomes; format: ADME, Macaca mulatta, Microsome; details: rhesus monkey
[37] = system: CD14-positive cell; assay: Immunostimulatory activity in human PBMC derived M-CSF stimulated CD14-positive cells assessed as effect on M2 macrophage polarization at 0.01 to 10 uM supplemented with fresh medium containing compound on day 1, 3 and 5 followed by M-CSF/IL-4/IL-13 stimulation; format: functional, cell-based; details: dose 0.01-10 µM, time 5.0 day
[38] = Protein binding in human plasma at 0.2 to 10 uM measured after 4 hrs by equilibrium dialysis based LC-MS/MS analysis; format: ADME, cell-free; details: dose 0.2-10 µM, read-out: PPB (converted)
[39] = Drug metabolism in dog liver microsomes; format: ADME, Canis lupus familiaris, Microsome

Sequence of Cytochrome P450 2B6 (P20813 whole entry): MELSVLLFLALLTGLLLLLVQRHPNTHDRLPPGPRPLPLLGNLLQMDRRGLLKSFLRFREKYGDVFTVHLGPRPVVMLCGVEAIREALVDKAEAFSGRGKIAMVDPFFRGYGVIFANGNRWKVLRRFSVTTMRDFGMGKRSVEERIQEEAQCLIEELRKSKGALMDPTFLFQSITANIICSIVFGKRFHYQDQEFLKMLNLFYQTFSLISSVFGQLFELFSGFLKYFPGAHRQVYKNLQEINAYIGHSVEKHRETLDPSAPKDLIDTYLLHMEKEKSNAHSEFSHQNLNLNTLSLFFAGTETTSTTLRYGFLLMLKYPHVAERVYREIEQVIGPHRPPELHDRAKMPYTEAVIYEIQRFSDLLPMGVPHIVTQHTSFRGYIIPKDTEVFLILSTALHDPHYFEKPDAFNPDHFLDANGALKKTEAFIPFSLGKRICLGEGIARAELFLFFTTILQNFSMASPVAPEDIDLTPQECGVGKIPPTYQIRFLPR
Sequence of TRAF2 and NCK-interacting protein kinase (Homo sapiens) (Q9UKE5 whole entry, looked up): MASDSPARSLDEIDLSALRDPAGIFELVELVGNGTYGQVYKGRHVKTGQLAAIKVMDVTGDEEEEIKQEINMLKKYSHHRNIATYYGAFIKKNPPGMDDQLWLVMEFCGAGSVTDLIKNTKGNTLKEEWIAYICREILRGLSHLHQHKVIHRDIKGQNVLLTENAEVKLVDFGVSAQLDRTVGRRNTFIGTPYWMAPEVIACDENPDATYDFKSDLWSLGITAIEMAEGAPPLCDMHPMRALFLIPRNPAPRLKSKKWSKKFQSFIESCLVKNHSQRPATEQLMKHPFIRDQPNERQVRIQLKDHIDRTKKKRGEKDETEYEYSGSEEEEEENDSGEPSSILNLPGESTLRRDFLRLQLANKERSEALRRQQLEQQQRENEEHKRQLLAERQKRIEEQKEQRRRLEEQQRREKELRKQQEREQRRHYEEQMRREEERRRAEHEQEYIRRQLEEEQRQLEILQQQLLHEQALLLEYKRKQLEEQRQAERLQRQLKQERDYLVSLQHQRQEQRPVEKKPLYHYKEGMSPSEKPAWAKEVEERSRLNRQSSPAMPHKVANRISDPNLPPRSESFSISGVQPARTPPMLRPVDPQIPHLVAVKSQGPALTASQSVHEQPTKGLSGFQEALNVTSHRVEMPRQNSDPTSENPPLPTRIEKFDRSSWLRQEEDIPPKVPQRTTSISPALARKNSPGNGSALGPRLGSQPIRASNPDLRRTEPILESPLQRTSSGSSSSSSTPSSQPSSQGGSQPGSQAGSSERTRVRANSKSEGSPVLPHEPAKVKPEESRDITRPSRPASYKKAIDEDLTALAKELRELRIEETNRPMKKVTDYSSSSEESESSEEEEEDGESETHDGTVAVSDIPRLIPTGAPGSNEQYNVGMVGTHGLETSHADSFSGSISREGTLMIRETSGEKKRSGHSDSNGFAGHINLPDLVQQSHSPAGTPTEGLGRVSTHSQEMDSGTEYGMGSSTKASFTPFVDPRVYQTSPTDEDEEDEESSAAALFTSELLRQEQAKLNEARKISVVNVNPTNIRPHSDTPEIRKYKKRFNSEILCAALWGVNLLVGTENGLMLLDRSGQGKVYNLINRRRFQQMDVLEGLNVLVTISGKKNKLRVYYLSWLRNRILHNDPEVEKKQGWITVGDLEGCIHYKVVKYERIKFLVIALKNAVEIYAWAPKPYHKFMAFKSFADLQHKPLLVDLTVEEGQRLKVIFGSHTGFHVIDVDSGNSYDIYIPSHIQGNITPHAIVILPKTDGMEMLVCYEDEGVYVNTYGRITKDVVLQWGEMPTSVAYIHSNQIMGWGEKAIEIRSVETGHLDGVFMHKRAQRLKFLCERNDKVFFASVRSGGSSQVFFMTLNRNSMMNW
Sequence of Cytochrome P450 2C9 (P11712 whole entry): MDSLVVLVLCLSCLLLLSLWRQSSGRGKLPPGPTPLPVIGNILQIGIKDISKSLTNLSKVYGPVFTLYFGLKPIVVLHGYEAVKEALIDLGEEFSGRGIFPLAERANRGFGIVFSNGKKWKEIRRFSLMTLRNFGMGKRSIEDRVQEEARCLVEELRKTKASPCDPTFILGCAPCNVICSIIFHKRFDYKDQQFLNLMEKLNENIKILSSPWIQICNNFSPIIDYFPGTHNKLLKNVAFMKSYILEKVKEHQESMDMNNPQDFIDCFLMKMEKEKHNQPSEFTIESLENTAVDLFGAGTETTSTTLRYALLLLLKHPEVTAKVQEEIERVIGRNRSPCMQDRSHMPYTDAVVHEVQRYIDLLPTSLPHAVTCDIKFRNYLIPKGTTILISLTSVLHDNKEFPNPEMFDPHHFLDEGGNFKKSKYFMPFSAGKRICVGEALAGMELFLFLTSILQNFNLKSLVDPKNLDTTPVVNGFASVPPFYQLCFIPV
Sequence of Receptor-interacting serine/threonine-protein kinase 2 (Homo sapiens) (O43353 whole entry): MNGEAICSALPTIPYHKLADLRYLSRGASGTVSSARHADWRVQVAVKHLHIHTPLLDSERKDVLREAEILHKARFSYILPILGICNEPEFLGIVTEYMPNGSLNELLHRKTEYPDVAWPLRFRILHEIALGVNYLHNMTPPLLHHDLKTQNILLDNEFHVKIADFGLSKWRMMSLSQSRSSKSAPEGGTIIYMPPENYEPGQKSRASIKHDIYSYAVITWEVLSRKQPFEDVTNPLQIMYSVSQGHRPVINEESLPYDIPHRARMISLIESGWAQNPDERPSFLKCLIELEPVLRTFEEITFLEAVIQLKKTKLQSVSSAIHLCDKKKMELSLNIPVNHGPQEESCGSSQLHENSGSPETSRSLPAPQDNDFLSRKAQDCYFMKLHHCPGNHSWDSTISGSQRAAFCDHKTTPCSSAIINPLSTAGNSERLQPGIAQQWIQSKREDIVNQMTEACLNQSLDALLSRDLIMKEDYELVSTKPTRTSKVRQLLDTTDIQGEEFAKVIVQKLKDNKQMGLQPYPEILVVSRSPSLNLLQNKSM
Sequence of Cytochrome P450 1A2 (P05177 whole entry): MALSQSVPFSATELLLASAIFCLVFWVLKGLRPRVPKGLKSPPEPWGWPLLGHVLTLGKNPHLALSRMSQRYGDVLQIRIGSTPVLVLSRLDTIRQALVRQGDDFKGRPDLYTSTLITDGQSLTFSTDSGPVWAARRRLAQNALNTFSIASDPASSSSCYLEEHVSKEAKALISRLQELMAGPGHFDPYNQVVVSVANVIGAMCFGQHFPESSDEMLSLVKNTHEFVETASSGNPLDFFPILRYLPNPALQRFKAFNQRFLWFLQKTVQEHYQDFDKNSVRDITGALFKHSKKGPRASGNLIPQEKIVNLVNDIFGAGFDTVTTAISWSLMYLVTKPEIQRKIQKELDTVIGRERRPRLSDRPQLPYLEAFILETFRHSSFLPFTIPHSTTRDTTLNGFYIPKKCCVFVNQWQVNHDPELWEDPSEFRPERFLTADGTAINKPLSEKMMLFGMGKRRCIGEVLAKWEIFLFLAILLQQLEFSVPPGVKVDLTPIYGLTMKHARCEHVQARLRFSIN
Sequence of Cytochrome P450 2C8 (P10632 whole entry): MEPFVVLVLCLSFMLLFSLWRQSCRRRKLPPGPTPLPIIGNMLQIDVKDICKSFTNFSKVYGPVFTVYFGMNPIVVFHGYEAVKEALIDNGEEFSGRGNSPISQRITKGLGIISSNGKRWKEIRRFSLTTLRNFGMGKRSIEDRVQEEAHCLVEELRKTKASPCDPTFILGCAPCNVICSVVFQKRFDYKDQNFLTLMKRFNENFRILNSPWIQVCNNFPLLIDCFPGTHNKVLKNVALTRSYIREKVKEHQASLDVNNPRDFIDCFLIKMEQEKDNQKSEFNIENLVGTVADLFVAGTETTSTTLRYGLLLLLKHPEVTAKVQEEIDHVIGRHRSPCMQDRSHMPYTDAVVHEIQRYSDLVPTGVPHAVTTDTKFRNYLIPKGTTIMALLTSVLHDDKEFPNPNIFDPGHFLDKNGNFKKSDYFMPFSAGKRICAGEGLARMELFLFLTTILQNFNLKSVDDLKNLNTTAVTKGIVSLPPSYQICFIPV

For `Cc1cccc(-c2nn3c(c2-c2ccc4ncnn4c2/C=C/C(N)=O)CCC3)n1`, the inhibition [1] was “Active; Observed A Significant Decline In Phosphorylated Smad3 Protein At 1 H But Nearly Absent At […] Hrs”, the CLint scaled at […], 1 µM [2] was < 17.1 mL/min/kg and the Activity [3] was “Active”. For the same compound, the pIC50 [4] was < 4.00, the Tmax [5] was 1 h and the Activity [6] was “Active”. For the same compound, the Activity [7] was “Active”, the CLint scaled at […], 1 µM [8] was < 6.9 mL/min/kg and the Activity [9] was “Non-toxic”. For the same compound, the Drug metabolism [10] was “metabolite_detected”, the clearance [11] was 63.3 mL/min/kg and the pIC50 [12] was < 4.00. For the same compound, the half-life [13] was 0.917 h, the bioavailability [14] was 36.8% and the AUClast [15] was 5626 nM.hr/ml. The Drug metabolism [16] was “metabolite_detected”, the remaining at 1 µM [17] was 20.7% and the Cmax [18] was 24233 nM/ml. For the same compound, the Activity [19] was “Non-toxic”, the pIC50 [20] was < 4.00 and the logD [21] was 1.36. The TGI [22] was “Dose-dependent-effect”, the fraction unbound at 4 h, up to 10 µM [23] was 0.554 and the half-life [24] was 3.16 h. The Vd [25] was 1.44 L/kg, the Activity [26] was “Active” and the fraction unbound at 4 h, up to 10 µM [27] was 0.522. For the same compound, the CLint scaled at […], 1 µM [28] was 19.3 mL/min/kg, the AUClast [29] was 9614 nM.hr/ml and the half-life [30] was 2.01 h. The Activity [31] was < 50%, the pIC50 [32] was < 4.00 and the Activity [33] was < 50%. For the same compound, the inhibition in vivo at 50 mg/kg [34] was 57.5%, the Drug metabolism [35] was “metabolite_detected” and the Drug metabolism [36] was “metabolite_detected”. The Activity [37] was “inactive”, the fraction unbound at 4 h, up to 10 µM [38] was 0.556 and the Drug metabolism [39] was “metabolite_detected”.

— ChEMBL document CHEMBL6182942, “Discovery of a Selective, Novel TGF-βR1 Inhibitor GFH018 for the Treatment of Solid Tumors” (J Med Chem, 2025)
